Source: article PMC6733504, “Effects of flavoring compounds used in electronic cigarette refill liquids on endothelial and vascular function” (PLoS ONE, 2019)

System: not listed separately
Experiment: Electrochemical determination of NO released from DEA/NO (NO scavenging)
Conditions: 1 mM, DEA/NO 1 μM
Method: Scavenging of NO by flavoring compounds was studied with a nitric oxide sensor (ISO-NOP, World Precision Instruments, Berlin, Germany), calibrated with acidified nitrite as described previously. Free NO radical was generated by incubation of DEA/NO (1 μM) in 1 ml of 100 mM phosphate buffer, pH 7.4, in the absence or presence of superoxide dismutase (2500 U/ml) at ambient temperature. At the peak concentration of NO, flavoring compounds (10 μl of DSMO stock solutions) were added, DMSO served as vehicle control.

Structure (SMILES) | Effect on recorded NO signal (NO scavenging)
CC(=O)C(C)=O [Diacetyl, Butane-2,3-dione] | only moderate effects

Same assay, conditions: 10 mM, DEA/NO 1 μM

Structure (SMILES) | Effect on recorded NO signal (NO scavenging)
CC(=O)C(C)=O [Diacetyl, Butane-2,3-dione] | pronounced decrease

System: endothelial cells
Experiment: MTT to formazan conversion (viability)
Type: cell-based, porcine
Conditions: 1 mM, 60 minutes
Method: The viability of endothelial cells was judged by incubation with 1 mM of the flavoring compounds, followed by determination of 3-(4,5-dimethyl-2-thiazolyl)-2,5-diphenyltetrazolium bromide (MTT) to formazan conversion using the Cayman MTT Cell Proliferation Assay Kit purchased through VWR International (Vienna, Austria).

Structure (SMILES) | Formazan formation (% of control)
CC(=O)OCCC(C)C [Isoamylacetate, 3-Methylbutyl acetate] | 103±3.8 % of control
CC1CCC(C(C)C)C(O)C1 (stereo not shown) [Menthol, 5-Methyl-2-(propan-2-yl)cyclohexan-1-ol] | 100±2.9 % of control
CC12CCC(CC1)C(C)(C)O2 [Eucalyptol, 1,3,3-Trimethyl-2-oxabicyclo[2.2.2]octane] | 99±2.0 % of control
Cc1cnc(C)cn1 [Dimethylpyrazine, 2,5-Dimethylpyrazine] | 103±3.7 % of control
CC(=O)C(C)=O [Diacetyl, Butane-2,3-dione] | 95±4.6 % of control
COc1cc(C=O)ccc1O [Vanillin, 4-Hydroxy-3-methoxybenzaldehyde] | 109±6.7 % of control

System: endothelial cells
Experiment: LDH release (membrane integrity)
Conditions: 1 mM, 60 minutes; maximum = 1% Triton
Method: To test for membrane integrity, endothelial cells were assayed for release of lactate dehydrogenase (LDH) into the culture medium. Subsequent to incubation with flavoring compounds (1 mM each) for 1 hour, 20-μl aliquots of the culture media were mixed with 200 μl of reagent buffer (1 mM pyruvate and 0.1 mM NAD^+ in PBS). The decrease in light absorbance at 340 nm was monitored using a diode array spectrophotometer (Hewlett Packard 8452A). Maximum LDH release was determined by treating the cells with 1% Triton X-100.

LDH release (% of maximum) | Structure (SMILES)
0.7±0.28 % of maximum | CC(=O)OCCC(C)C [Isoamylacetate, 3-Methylbutyl acetate]
0.8±0.03 % of maximum | CC1CCC(C(C)C)C(O)C1 (stereo not shown) [Menthol, 5-Methyl-2-(propan-2-yl)cyclohexan-1-ol]
1.0±0.27 % of maximum | CC12CCC(CC1)C(C)(C)O2 [Eucalyptol, 1,3,3-Trimethyl-2-oxabicyclo[2.2.2]octane]
0.9±0.12 % of maximum | Cc1cnc(C)cn1 [Dimethylpyrazine, 2,5-Dimethylpyrazine]
0.6±0.03 % of maximum | CC(=O)C(C)=O [Diacetyl, Butane-2,3-dione]
1.4±0.72 % of maximum | COc1cc(C=O)ccc1O [Vanillin, 4-Hydroxy-3-methoxybenzaldehyde]

System: rat aortic rings
Experiment: Effect of flavorings on vascular tone of U-46619 precontracted aortic rings
Conditions: Rattus norvegicus, absence of L-NAME; 95% CI; read-out: EC50 of relaxation of pre-contracted vessels (Control)
Method: Unsexed Sprague-Dawley rats (obtained from Charles River, Sulzfeld, Germany) were housed at the local animal facility in approved cages. […] Animals were euthanized in a box that was gradually filled with CO2 until vital signs had ceased (cessation of respiration and circulation). Subsequently, the thorax of the animals was opened, the thoracic aorta was removed, cleaned from connective tissue and immediately used for assessment of vessel function.
After equilibration for 60 min at the optimal resting tension of 20 mN, maximal contractile activity was determined with a depolarizing solution containing 60 mM K^+. […] When contraction had reached a stable plateau (~after 20 min) cumulative concentration-response curves were established with flavorings. Where indicated, the effects of the flavorings on vascular tone were tested in the presence of the NOS inhibitor N^G-nitro-L-arginine methyl ester (L-NAME, 0.2 mM).
Concentration-response curves of different ring segments from a single animal were averaged and counted as an individual experiment.

EC50 [µM] | Structure (SMILES)
1600 | CC1CCC(C(C)C)C(O)C1 (stereo not shown) [Menthol, 5-Methyl-2-(propan-2-yl)cyclohexan-1-ol]
4200 | Cc1cnc(C)cn1 [Dimethylpyrazine, 2,5-Dimethylpyrazine]
1700 | COc1cc(C=O)ccc1O [Vanillin, 4-Hydroxy-3-methoxybenzaldehyde]

Same assay, conditions: Rattus norvegicus, presence of L-NAME 0.2 mM; 95% CI; read-out: EC50 of relaxation of pre-contracted vessels (L-NAME)

EC50 [µM] | Structure (SMILES)
1400 | CC1CCC(C(C)C)C(O)C1 (stereo not shown) [Menthol, 5-Methyl-2-(propan-2-yl)cyclohexan-1-ol]
5200 | Cc1cnc(C)cn1 [Dimethylpyrazine, 2,5-Dimethylpyrazine]
1800 | COc1cc(C=O)ccc1O [Vanillin, 4-Hydroxy-3-methoxybenzaldehyde]

Same assay, conditions: absence of L-NAME; 95% CI

EC50 of relaxation of pre-contracted vessels (Control) | Structure (SMILES)
no effects below 10 mM | CC(=O)OCCC(C)C [Isoamylacetate, 3-Methylbutyl acetate]
no effects below 10 mM | CC12CCC(CC1)C(C)(C)O2 [Eucalyptol, 1,3,3-Trimethyl-2-oxabicyclo[2.2.2]octane]
no effects below 10 mM | CC(=O)C(C)=O [Diacetyl, Butane-2,3-dione]

Biological target: T1, soluble guanylate cyclase (sGC) (Bos taurus, UniProt P16068+P19687)
T1 construct: The activity of sGC purified from bovine lung; from tissue; host or cells: bovine lung
T1 sequence (P19687 1-691): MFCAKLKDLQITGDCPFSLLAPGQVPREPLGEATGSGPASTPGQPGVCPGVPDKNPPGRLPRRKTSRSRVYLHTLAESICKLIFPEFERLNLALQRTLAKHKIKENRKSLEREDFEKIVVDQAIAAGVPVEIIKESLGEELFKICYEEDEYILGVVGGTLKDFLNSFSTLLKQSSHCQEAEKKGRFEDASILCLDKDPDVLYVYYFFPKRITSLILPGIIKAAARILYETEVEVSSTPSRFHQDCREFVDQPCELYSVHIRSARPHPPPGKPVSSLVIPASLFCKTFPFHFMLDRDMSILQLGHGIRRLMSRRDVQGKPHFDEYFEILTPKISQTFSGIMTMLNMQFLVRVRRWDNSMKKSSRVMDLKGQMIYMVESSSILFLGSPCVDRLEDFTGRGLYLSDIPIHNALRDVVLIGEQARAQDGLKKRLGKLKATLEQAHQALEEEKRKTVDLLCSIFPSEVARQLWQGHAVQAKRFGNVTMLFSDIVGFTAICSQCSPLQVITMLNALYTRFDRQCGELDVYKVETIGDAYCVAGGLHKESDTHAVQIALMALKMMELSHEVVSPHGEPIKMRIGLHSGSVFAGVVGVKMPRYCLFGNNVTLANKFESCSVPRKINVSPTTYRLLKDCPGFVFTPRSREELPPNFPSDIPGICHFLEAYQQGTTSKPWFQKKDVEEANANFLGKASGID
T1 sequence (P16068 1-619): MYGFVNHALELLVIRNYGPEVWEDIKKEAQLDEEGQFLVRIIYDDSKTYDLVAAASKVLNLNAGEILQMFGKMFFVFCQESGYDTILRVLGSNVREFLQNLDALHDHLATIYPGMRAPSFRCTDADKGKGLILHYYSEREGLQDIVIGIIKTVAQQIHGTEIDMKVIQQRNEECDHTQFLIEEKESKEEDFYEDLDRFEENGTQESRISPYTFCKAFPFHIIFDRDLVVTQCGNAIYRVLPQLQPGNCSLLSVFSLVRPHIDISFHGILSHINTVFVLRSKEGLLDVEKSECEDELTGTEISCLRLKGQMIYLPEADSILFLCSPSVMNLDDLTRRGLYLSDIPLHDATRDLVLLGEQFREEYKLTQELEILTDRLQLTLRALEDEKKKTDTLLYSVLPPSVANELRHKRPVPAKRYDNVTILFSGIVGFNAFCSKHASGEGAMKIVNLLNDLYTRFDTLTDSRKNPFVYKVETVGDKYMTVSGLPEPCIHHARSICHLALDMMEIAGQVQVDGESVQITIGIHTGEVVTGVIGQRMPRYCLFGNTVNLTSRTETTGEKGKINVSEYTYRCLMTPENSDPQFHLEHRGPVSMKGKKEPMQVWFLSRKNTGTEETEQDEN
Experiment: Activity of purified sGC stimulated with DEA/NO
Type: biochemical, bovine
Conditions: DEA/NO 0.05 μM; 95% CI
Method: The activity of sGC purified from bovine lung was determined as formation of [^32P]cGMP from [α-^32P]GTP. The purified enzyme (50 ng) was incubated at 37°C for 10 min in a final volume of 0.1 ml in the absence or presence of flavorings with the NO donor DEA/NO at concentrations indicated in the figure legends, followed by isolation of [^32P]cGMP and quantification of radioactivity (Cerenkov radiation) in a β counter.
To test for reversibility of inhibition, sGC (50 ng) was preincubated in the absence or presence of the respective compounds for 5 minutes at 37°C, followed by 50-fold dilution in the assay mixtures and incubation with DEA/NO at 37°C for 10 minutes.

IC50 [µM] | Structure (SMILES)
290 | CC(=O)C(C)=O [Diacetyl, Butane-2,3-dione]

Same assay, conditions: flavoring 1 mM, DEA/NO 0.01–10 μM

Emax of DEA/NO-stimulated sGC activity in presence of flavoring [µmol cGMP x min-1 x mg-1] | Structure (SMILES)
28±0.7 | CC(=O)OCCC(C)C [Isoamylacetate, 3-Methylbutyl acetate]
28±0.4 | CC1CCC(C(C)C)C(O)C1 (stereo not shown) [Menthol, 5-Methyl-2-(propan-2-yl)cyclohexan-1-ol]
27±0.7 | Cc1cnc(C)cn1 [Dimethylpyrazine, 2,5-Dimethylpyrazine]
25±0.6 | COc1cc(C=O)ccc1O [Vanillin, 4-Hydroxy-3-methoxybenzaldehyde]
